The source of these data is patent publication EP0186181A2, “Uses for enprostil” (SYNTEX (U.S.A.) INC., priority 1984, dated 1986).

Assay [1] deals with insulin levels. The conditions noted are these: cited from earlier work.
The test system of assay [2] is serum cholesterol. In words: Effect of orally administered enprostil on serum cholesterol, five weeks (Example I). It is filed as in vivo, human. On the procedure:
A group of 20 patients with high cholesterol baseline were orally given 70 µg enprostil twice daily. […] The median change for the group was 16 percent reduction, with 60 percent of the patients tested showing a significant reduction in serum cholesterol.
A second group of 16 patients with a high cholesterol baseline were given 35 µg enprostil twice daily.
A third group of 13 individuals were given a placebo. […] The median change was a 2 percent increase in cholesterol.

The test system of assay [3] is serum cholesterol. In words: Cholesterol reduction study, 7 to 70 µg BID versus placebo (Example II, Table 1). The assay is classed as in vivo, human.
In assay [4] the test system is serum cholesterol, LDL cholesterol, HDL cholesterol, apoproteins. Nature of the assay: 9-day placebo controlled cross-over study in normal subjects: cholesterol, LDL, HDL, apoproteins (Table 2). The assay is classed as in vivo, human. Further details: Mean reduction of cholesterol / Mean reduction of LDL cholesterol / Mean reduction of HDL cholesterol / Mean reduction of apoprotein A / Mean reduction of apoprotein B: concentration or dose not given beside the values. The conditions noted are these: 9-day cross-over. The method, then: To further clarify the nature of these changes in a prospective manner, normal subjects were dosed with enprostil for periods ranging from 8 days up to 44 days in duration.
In a 9-day placebo controlled cross-over study, with each subject serving as their own control, the mean reduction in cholesterol, Low Density Lipoprotein (LDL) cholesterol, and High Density Lipoprotein (HDL) cholesterol are shown in Table 2.
These findings are surprising since the subjects in this study were normocholesterolemic at baseline (that is serum cholesterol under 250 mg/dl) and were on a free diet with no attempt to regulate dietary cholesterol intake.

Assay [5] has as its system serum cholesterol. In words: 44 day dosing placebo controlled trial, serum cholesterol (Example III). It is filed as in vivo, human. On the procedure:
In a 44 day dosing study 20 subject participated in a placebo controlled trial. Ten subjects received enprostil and the remainder received placebo. […] Similarly there was a 46% reduction in their LDL cholesterol from 140 mg/dl to 75 mg/dl. This subject was normocholesterolemic at baseline and no dietary manipulation was attempted.

Assay [6] has as its system serum GIP. In words: Serum GIP after meal stimulus, double blind crossover study (Example IV). The assay is classed as in vivo, human. The following applies: 70 µg orally 30 minutes before meal; placebo showed a four fold increase. The method, then:
Serum GIP levels are known to increase after meals.
Groups of 10 subjects participated in a double blind, crossover study. Either the placebo or 70 µg enprostil was orally given 30 minutes before meal time and levels of GIP were measured.

Assay [7] relates to serum insulin and glucose. In words: Serum insulin and glucose after meal, double blind crossover study (Example V). It is filed as in vivo, human. The conditions noted are these: orally 30 minutes before meal. On the procedure: A group of 10 subjects participated in a double blind crossover study. Either a placebo or enprostil was orally given 30 minutes before meal time and levels of insulin and glucose were measured after the meal.

Assay [8] deals with serum insulin and glucose. In words: Eight-day crossover study with standard breakfast: serum glucose, insulin, GIP (Example VI). It is filed as in vivo, human. The conditions noted are these: 70 µg orally. On the procedure:
Eight healthy male subject received either 70 µg enprostil per day or placebo for eight days followed by a washout period of one week and a subsequent second eight-day administration during which they received the opposite drug regime.
On day 1 and day 8 of each study period the patients reported to the clinical studies unit fasting and were administered 70 µg of enprostil orally in a glass of water. Thirty minutes later they were administered a standard breakfast and blood samples were drawn at -30, just prior to enprostil administration, 0, at the time of enprostil administration, 15, 30, 60, 90, 120 and 180 minutes.

In assay [9] the test system is serum xylose. Nature of the assay: Oral d-xylose absorption, 10-day placebo controlled cross-over (Example VII). The assay is classed as in vivo, human. The following applies: 70 µg enprostil per day, 5 g d-xylose orally. The method, then: (§1) 10 normal subjects participated in a 10-day placebo controlled cross-over receiving either placebo or […] enprostil per day. On day 1 and day 9 of each study phase they orally received 5 g of d-xylose, a sugar not normally metabolized in man. Blood measurements for serum xylose were made at -30, 0, +30, 60, 120, 180, 240, and 300 minutes following ingestion of xylose. On day 2 and day 10 of each study phase, the subjects received a 25 g intravenous glucose tolerance test, 30 minutes following enprostil administration.

Assay [10] relates to serum glucose. Nature of the assay: 25 g intravenous glucose tolerance test (Example VII). The assay is classed as in vivo, human. The conditions noted are these: 30 minutes following enprostil administration, day 2 and day 10. The method, then:
as §1

Assay [11] has as its system serum glucose. In words: Serum glucose after standard breakfast, study lasting up to 44 days (Example VIII). It is filed as in vivo, human. The conditions noted are these: 35 µg BID, standard breakfast 30 minutes after dose. On the procedure: 20 subjects participated in a study lasting up to 44 days. On day -8, all 20 subjects received a placebo capsule followed 30 minutes later by a standard breakfast with serial blood measurements. Eight days later all 20 subjects were randomized to either enprostil […] BID or placebo and continued dosing for a period of 30 days. On days 1, 8, and 30, they were given enprostil followed 30 minutes later by a standard breakfast with serial blood measurements.

Where [12] appears, read: administered by tube to the duodenum.
Setting [13] is: 35 µg twice daily, of 16 patients.
Setting [14] is: 70 µg twice daily, of 20 patients.
[15] abbreviates: normocholesterolemic subjects, free diet.
Setting [16] is: of nine subjects who received enprostil.
[17] abbreviates: subject number 120, from 140 mg/dl.

The structures appear in SMILES notation. Like-named read-outs stand apart in the source and are kept apart here.

Consider `CCCCC[C@](C)(O)/C=C/[C@H]1[C@H](O)CC(=O)[C@@H]1C/C=C\CCCC(=O)OC` [15S, 15 methyl PGE2 methyl ester], for which, in assay [1] (setting [12]), the insulin levels result is on record as “lowered insulin levels” and the serum glucose levels entry is given as “no change”. In assay [1] (intraduodenally or intravenously), the “time to peak serum glucose levels” value was “no change”. In assay [1] (intravenous administration), the glucose levels entry is reported as “without affecting glucose levels” and the insulin levels result is “lowered insulin levels”.

Consider `COC(=O)CCC=C=CC[C@H]1C(=O)C[C@@H](O)[C@@H]1/C=C/[C@@H](O)COc1ccccc1` [enprostil], for which the “patients showing serum cholesterol reduction” value in assay [2] (35 µg twice daily, 16 patients) was 56%. The “median change (reduction in serum cholesterol)” value in assay [2] (35 µg twice daily, 16 patients with high cholesterol baseline) is on record as “eleven”. Besides, in assay [2] (setting [13]), the “number of patients showing greater than 10 percent serum cholesterol reduction” value is listed as “eight”, the “number of patients showing greater than 25 percent reduction in serum cholesterol” value is reported as “one” and the “number of patients showing no change in serum cholesterol” value is “seven”. In addition, the “patients tested showing a significant reduction in serum cholesterol” value in assay [2] (70 µg twice daily orally, 20 patients) is recorded as 60%. Further, the “median change for the group (reduction in serum cholesterol)” value in assay [2] (70 µg twice daily orally, 20 patients with high cholesterol baseline) was 16%. In assay [2] (setting [14]), the “number of patients showing greater than 10 percent reduction in serum cholesterol” value is “eleven”, the “number of patients showing greater than 25 percent reduction in serum cholesterol” value is recorded as “one” and the “number of patients showing no change in serum cholesterol” value is on record as “eight”. Besides, in [3] (7 µg BID, 9 subjects), the “Cholesterol % decrease (combined 2-12 week of dosing)” value (shortened to “Cholesterol % decrease”) is recorded as 67% and the “Median % change (cholesterol)” value is -11%. In assay [3] (35 µg BID, 28 subjects), the “Cholesterol % decrease” value is given as 64% and the “Median % change (cholesterol)” value is reported as -13%. In addition, in assay [3] (70 µg BID, 28 subjects), the “Cholesterol % decrease” value is 64% and the “Median % change (cholesterol)” value is recorded as -17%. For the same molecule, in assay [4], the “change in total triglycerides” value was “essentially no change”. In [4] (setting [15]), the “Mean reduction of HDL cholesterol” value is listed as -9.2%, the “Mean reduction of LDL cholesterol” value was -21.0%, the “Mean reduction of apoprotein A” value is -1.8% and the “Mean reduction of apoprotein B” value is -16.0%. In assay [4] (setting [15]), the “Mean reduction of cholesterol” value is on record as -15.0%. Also, in [5] (setting [16]), the “number of individuals with a reduction in total and LDL cholesterol throughout the entire 44 day period” value is on record as “Three”; the “number of subjects showing a reduction of total cholesterol by 16 days” value is on record as “Six”. The “reduction of total serum cholesterol” value in assay [5] (subject number 120, day 44 versus mean baseline of 208 mg/dl) is reported as 43%. Further, in assay [5] (setting [17]), the “LDL cholesterol after dosing” value stood at 75 mg/dL and the “reduction in LDL cholesterol” value is 46%. In addition, in assay [5] (subject number 120, mean baseline 208 mg/dl), the “total serum cholesterol at day 44” value is 123 mg/dL. Further, in [6], the “increase in serum GIP 60 minutes after the meal stimulus” value is “no increase”. For the same molecule, the “raise in glucose levels after the meal” value in assay [7] is on record as “no statistically or clinically significant raise”. Also, the “increase of insulin levels after the meal” value in assay [7] (placebo five fold) is listed as “two”. Moreover, the “serum GIP” value in assay [8] (both study days) was “essentially complete inhibition”. In assay [8] (day 1 and 8), the “serum insulin concentrations for each time point” value is “marked reduction”. In assay [8] (day 1 and day 8), the “reduction of area under the serum glucose by time curve compared to the placebo phase” value is listed as 15-20%. Further, in assay [9], the “reduction in the amount of xylose excreted over 5 hours” value is listed as 30%. The “peak serum xylose levels” value in assay [9] (days 1 and 9) is “marked suppression and delay”. Also, in [9] (versus 1.8g), the “amount of xylose excreted over 5 hours” value was found to be 1.3 g. Moreover, the “serum glucose by time curves following intravenous glucose administration, versus placebo” value in assay [10] is given as “no marked differences”. In assay [11], the “peak blood glucose levels versus placebo” value is reported as “substantially reduced”. The “time of appearance of peak blood glucose levels” value in assay [11] (delay from approximately 60 minutes) was roughly 90 min.
